This is an account of results in patent publication US9156872B2, “2′-azido substituted nucleoside derivatives and methods of use thereof for the treatment of viral diseases” (priority 2011, dated 2015).

What is called EC50 is the concentration giving half of the maximal effect.

One experiment relates to HCV replicon cells. In words: Cell-based HCV replicon assay (replicon RNA by Taqman real time PCR). To be noted: HCV replicon 1b, cells harvested on day 3; read-out: 1b EC50.
With `CCOc1nc(N)nc2c1ncn2[C@@H]1O[C@@H]2COP(=O)(OC3CCC3)O[C@H]2[C@@]1(C)N=[N+]=[N-]` (single isomer, unassigned) [Compound 101], the concentration giving a half-maximal response (EC50) worked out at 100 nM.

`COc1nc(N)nc2c1ncn2[C@@H]1O[C@@H]2COP(=O)(OC3CCC3)O[C@H]2[C@@]1(C)N=[N+]=[N-]` (single isomer, unassigned) [Compound 104]: the EC50 amounted to 10900 nM. Turning to `CCOc1nc(N)nc2c1ncn2[C@@H]1O[C@@H]2COP(=O)(OC3CCC3)O[C@H]2[C@@]1(C)N=[N+]=[N-]` (single isomer, unassigned) [Compound 107], the EC50 amounted to 18600 nM.

Regarding `CCOc1nc(N)nc2c1ncn2[C@@H]1O[C@@H]2COP(=O)(OC3CCC3)O[C@H]2[C@@]1(C)N=[N+]=[N-]` (single isomer, unassigned) [Compound 108], the concentration for a half-maximal effect (EC50) was found to be 24100 nM.

The same experiment, now with this note: Hepatitis C virus, 72 h, HCV replicon 1b, cells harvested on day 3; read-out: 1b EC50.
Consider `COc1nc(N)nc2c1ncn2[C@@H]1O[C@@H]2COP(=O)(OC3CCC3)O[C@H]2[C@@]1(C)N=[N+]=[N-]` (single isomer, unassigned) [Compound 102], for which the concentration for a half-maximal effect (EC50) turned out to be 11000 nM.

Staying with this experiment, now noted: Hepatitis C virus, 72 h, read-out: 1b EC50.
Consider `CCOc1nc(N)nc2c1ncn2[C@@H]1O[C@H](COP(=O)(N[C@@H](C)C(=O)OC)Oc2ccccc2)[C@@H](O)[C@@]1(C)N=[N+]=[N-]` (single isomer, unassigned) [Compound 142], for which the half-maximal effective concentration (EC50) was found to be 500 nM. On the same count and under the same terms, to `CCCOC(=O)[C@H](C)NP(=O)(OC[C@H]1O[C@@H](n2ccc(=O)[nH]c2=O)[C@](C)(N=[N+]=[N-])[C@@H]1O)Oc1ccccc1` (single isomer, unassigned) [Compound 147] belongs 5600 nM.

On to `CCCCOC(=O)[C@H](C)NP(=O)(OC[C@H]1O[C@@H](n2ccc(=O)[nH]c2=O)[C@](C)(N=[N+]=[N-])[C@@H]1O)Oc1cccc2ccccc12` (single isomer, unassigned) [Compound 155], for which the concentration for a half-maximal effect (EC50) is 2200 nM. In the case of `CC(C)OC(=O)[C@H](C)NP(=O)(OC[C@H]1O[C@@H](n2ccc(=O)[nH]c2=O)[C@](C)(N=[N+]=[N-])[C@@H]1O)Oc1ccccc1` (single isomer, unassigned) [Compound 157], the EC50 is 49000 nM. With `COC(=O)[C@H](C)NP(=O)(OC[C@H]1O[C@@H](n2ccc(=O)[nH]c2=O)[C@](C)(N=[N+]=[N-])[C@@H]1O)Oc1ccccc1` (single isomer, unassigned) [Compound 158], the concentration for a half-maximal effect (EC50) stood at 9000 nM. The same measure, in the same setting: to `CCCOC(=O)[C@H](C)NP(=O)(OC[C@H]1O[C@@H](n2cnc3c(OCC)nc(N)nc32)[C@](C)(N=[N+]=[N-])[C@@H]1O)Oc1ccccc1` (single isomer, unassigned) [Compound 163] belongs 1100 nM. Still for that read-out and setting: to `CCCCOC(=O)[C@H](C)NP(=O)(OC[C@H]1O[C@@H](n2cnc3c(OCC)nc(N)nc32)[C@](C)(N=[N+]=[N-])[C@@H]1O)Oc1ccccc1` (single isomer, unassigned) [Compound 167] belongs 1200 nM; to `CCCCOC(=O)[C@H](C)NP(=O)(OC[C@H]1O[C@@H](n2cnc3c(OCC)nc(N)nc32)[C@](C)(N=[N+]=[N-])[C@@H]1O)Oc1cccc2ccccc12` (single isomer, unassigned) [Compound 171], 500 nM. On the same count and under the same terms, to `CCOc1nc(N)nc2c1ncn2[C@@H]1O[C@H](COP(=O)(N[C@@H](C)C(=O)OC)Oc2ccc(F)cc2)[C@@H](O)[C@@]1(C)N=[N+]=[N-]` (single isomer, unassigned) [Compound 173] belongs 600 nM.

As for `CCOC(=O)[C@H](C)NP(=O)(OC[C@H]1O[C@@H](n2cnc3c(OCC)nc(N)nc32)[C@](C)(N=[N+]=[N-])[C@@H]1O)Oc1ccc(F)cc1` (single isomer, unassigned) [Compound 175], the EC50 was 400 nM.

With `COC(=O)[C@H](C)NP(=O)(OC[C@H]1O[C@@H](n2ccc(N)nc2=O)[C@](C)(N=[N+]=[N-])[C@@H]1O)Oc1ccc(Cl)cc1` (single isomer, unassigned) [Compound 185], the EC50 is 2900 nM.

The same experiment, now with this note: read-out: 1b EC50.
As to `CCOc1nc(N)nc2c1ncn2[C@@H]1O[C@H](COP(=O)(N[C@@H](C)C(=O)OC)Oc2ccccc2)[C@@H](O)[C@@]1(C)N=[N+]=[N-]` (single isomer, unassigned) [Compound 143], the 50% effective concentration (EC50) amounted to 600 nM.

On to `CCOC(=O)[C@H](C)NP(=O)(OC[C@H]1O[C@@H](n2ccc(=O)[nH]c2=O)[C@](C)(N=[N+]=[N-])[C@@H]1O)Oc1ccccc1` (single isomer, unassigned) [Compound 151], for which the 50% effective concentration (EC50) amounted to 5100 nM.

As to `CCOC(=O)[C@H](C)NP(=O)(OC[C@H]1O[C@@H](n2ccc(=O)[nH]c2=O)[C@](C)(N=[N+]=[N-])[C@@H]1O)Oc1ccccc1` (single isomer, unassigned) [Compound 152], the half-maximal effective concentration (EC50) worked out at 500 nM. Same read-out and setting: to `C[C@H](NP(=O)(OC[C@H]1O[C@@H](n2ccc(=O)[nH]c2=O)[C@](C)(N=[N+]=[N-])[C@@H]1O)Oc1ccccc1)C(=O)OCC(C)(C)C` (single isomer, unassigned) [Compound 153] belongs 19000 nM; to `C[C@H](NP(=O)(OC[C@H]1O[C@@H](n2ccc(=O)[nH]c2=O)[C@](C)(N=[N+]=[N-])[C@@H]1O)Oc1ccccc1)C(=O)OCC(C)(C)C` (single isomer, unassigned) [Compound 154], 700 nM.

For `CCCCOC(=O)[C@H](C)NP(=O)(OC[C@H]1O[C@@H](n2ccc(=O)[nH]c2=O)[C@](C)(N=[N+]=[N-])[C@@H]1O)Oc1cccc2ccccc12` (single isomer, unassigned) [Compound 156], the concentration giving a half-maximal response (EC50) turned out to be 1500 nM. Still for that read-out and setting: to `COC(=O)[C@H](C)NP(=O)(OC[C@H]1O[C@@H](n2ccc(=O)[nH]c2=O)[C@](C)(N=[N+]=[N-])[C@@H]1O)Oc1ccccc1` (single isomer, unassigned) [Compound 159] belongs 6200 nM; to `CCOc1nc(N)nc2c1ncn2[C@@H]1O[C@H](COP(=O)(N[C@@H](C)C(=O)OCC(C)(C)C)Oc2ccccc2)[C@@H](O)[C@@]1(C)N=[N+]=[N-]` (single isomer, unassigned) [Compound 160], 6800 nM.

On to `CCOc1nc(N)nc2c1ncn2[C@@H]1O[C@H](COP(=O)(N[C@@H](C)C(=O)OCC(C)(C)C)Oc2ccccc2)[C@@H](O)[C@@]1(C)N=[N+]=[N-]` (single isomer, unassigned) [Compound 161], for which the EC50 was determined as 1700 nM. With `CCCOC(=O)[C@H](C)NP(=O)(OC[C@H]1O[C@@H](n2cnc3c(OCC)nc(N)nc32)[C@](C)(N=[N+]=[N-])[C@@H]1O)Oc1ccccc1` (single isomer, unassigned) [Compound 164], the concentration for a half-maximal effect (EC50) turned out to be 1000 nM. Turning to `CCOc1nc(N)nc2c1ncn2[C@@H]1O[C@H](COP(=O)(N[C@@H](C)C(=O)OC(C)C)Oc2ccccc2)[C@@H](O)[C@@]1(C)N=[N+]=[N-]` (single isomer, unassigned) [Compound 165], the EC50 amounted to 6200 nM. As for `CCOc1nc(N)nc2c1ncn2[C@@H]1O[C@H](COP(=O)(N[C@@H](C)C(=O)OC(C)C)Oc2ccccc2)[C@@H](O)[C@@]1(C)N=[N+]=[N-]` (single isomer, unassigned) [Compound 166], the EC50 is 800 nM.

Consider `CCCCOC(=O)[C@H](C)NP(=O)(OC[C@H]1O[C@@H](n2cnc3c(OCC)nc(N)nc32)[C@](C)(N=[N+]=[N-])[C@@H]1O)Oc1ccccc1` (single isomer, unassigned) [Compound 168], for which the concentration giving a half-maximal response (EC50) turned out to be 1500 nM. Still for that read-out and setting: to `CCCCOC(=O)[C@H](C)NP(=O)(OC[C@H]1O[C@@H](n2ccc(=O)[nH]c2=O)[C@](C)(N=[N+]=[N-])[C@@H]1O)Oc1ccccc1` (single isomer, unassigned) [Compound 169] belongs 3500 nM. Consider `CCCCOC(=O)[C@H](C)NP(=O)(OC[C@H]1O[C@@H](n2ccc(=O)[nH]c2=O)[C@](C)(N=[N+]=[N-])[C@@H]1O)Oc1ccccc1` (single isomer, unassigned) [Compound 170], for which the EC50 came to 1500 nM. Consider `CCCCOC(=O)[C@H](C)NP(=O)(OC[C@H]1O[C@@H](n2cnc3c(OCC)nc(N)nc32)[C@](C)(N=[N+]=[N-])[C@@H]1O)Oc1cccc2ccccc12` (single isomer, unassigned) [Compound 172], for which the concentration giving a half-maximal response (EC50) came out at 400 nM. In the case of `CCOc1nc(N)nc2c1ncn2[C@@H]1O[C@H](COP(=O)(N[C@@H](C)C(=O)OC)Oc2ccc(F)cc2)[C@@H](O)[C@@]1(C)N=[N+]=[N-]` (single isomer, unassigned) [Compound 174], the concentration giving a half-maximal response (EC50) is 500 nM.

As to `CCOC(=O)[C@H](C)NP(=O)(OC[C@H]1O[C@@H](n2cnc3c(OCC)nc(N)nc32)[C@](C)(N=[N+]=[N-])[C@@H]1O)Oc1ccc(F)cc1` (single isomer, unassigned) [Compound 176], the EC50 is 300 nM. In the case of `C[C@H](NP(=O)(OC[C@H]1O[C@@H](n2ccc(N)nc2=O)[C@](C)(N=[N+]=[N-])[C@@H]1O)Oc1ccccc1Cl)C(=O)OCC(C)(C)C` (single isomer, unassigned) [Compound 181], the half-maximal effective concentration (EC50) was 3800 nM. As for `C[C@H](NP(=O)(OC[C@H]1O[C@@H](n2ccc(N)nc2=O)[C@](C)(N=[N+]=[N-])[C@@H]1O)Oc1ccccc1Cl)C(=O)OCC(C)(C)C` (single isomer, unassigned) [Compound 182], the EC50 is 12000 nM. Turning to `COC(=O)[C@H](C)NP(=O)(OC[C@H]1O[C@@H](n2ccc(N)nc2=O)[C@](C)(N=[N+]=[N-])[C@@H]1O)Oc1ccc(Cl)cc1` (single isomer, unassigned) [Compound 186], the concentration for a half-maximal effect (EC50) worked out at 2000 nM.

For `COC(=O)[C@H](C)NP(=O)(OC[C@H]1O[C@@H](n2ccc(N)nc2=O)[C@](C)(N=[N+]=[N-])[C@@H]1O)Oc1ccc(F)cc1` (single isomer, unassigned) [Compound 187], the EC50 is 22000 nM. Take `COC(=O)[C@H](C)NP(=O)(OC[C@H]1O[C@@H](n2ccc(N)nc2=O)[C@](C)(N=[N+]=[N-])[C@@H]1O)Oc1ccc(F)cc1` (single isomer, unassigned) [Compound 188]: the concentration for a half-maximal effect (EC50) was 5600 nM. In the case of `CCOC(=O)[C@H](C)NP(=O)(OC[C@H]1O[C@@H](n2ccc(N)nc2=O)[C@](C)(N=[N+]=[N-])[C@@H]1O)Oc1ccc(Cl)cc1` (single isomer, unassigned) [Compound 189], the half-maximal effective concentration (EC50) amounted to 22000 nM.

As to `CCOC(=O)[C@H](C)NP(=O)(OC[C@H]1O[C@@H](n2ccc(N)nc2=O)[C@](C)(N=[N+]=[N-])[C@@H]1O)Oc1ccc(Cl)cc1` (single isomer, unassigned) [Compound 190], the EC50 is 5600 nM.
